In ChEMBL document CHEMBL3769303, “Discovery of membrane active benzimidazole quinolones-based topoisomerase inhibitors as potential DNA-binding antimicrobial agents” (Eur J Med Chem, 2016):
≈ marks a conversion by molar mass, not a printed value.

Test system: Micrococcus luteus
Experiment: Antibacterial activity against Micrococcus luteus ATCC 4698 by micro broth dilution method
Format: functional
Conditions: NCTC 2665

Compound | MIC [µg/mL]
O=C(O)c1cn(C2CC2)c2cc(N3CCN(Cc4nc5ccccc5n4Cc4ccccc4Cl)CC3)c(F)cc2c1=O | 4 (≈ 6.83 µM)
CCn1cc(C(=O)O)c(=O)c2cc(F)c(N3CCN(Cc4nc5ccccc5n4CC)CC3)cc21 | 4 (≈ 8.38 µM)
CCCCCCCCCCCCn1c(CN2CCN(c3cc4c(cc3F)c(=O)c(C(=O)O)cn4C3CC3)CC2)nc2ccccc21 | 4 (≈ 6.35 µM)
O=C(O)c1cn(C2CC2)c2cc(N3CCN(Cc4nc5ccccc5n4Cc4cccc(Cl)c4)CC3)c(F)cc2c1=O | 0.125 (≈ 0.213 µM)

Test system: Bacillus spizizenii
Experiment: Antibacterial activity against Bacillus subtilis ATCC 6633 by micro broth dilution method
Format: functional
Conditions: not given

Compound | MIC [µg/mL]
O=C(O)c1cn(C2CC2)c2cc(N3CCN(Cc4nc5ccccc5n4Cc4ccccc4Cl)CC3)c(F)cc2c1=O | 0.5 (≈ 0.853 µM)
CCn1cc(C(=O)O)c(=O)c2cc(F)c(N3CCN(Cc4nc5ccccc5n4CC)CC3)cc21 | 2 (≈ 4.19 µM)
CCCCCCCCCCCCn1c(CN2CCN(c3cc4c(cc3F)c(=O)c(C(=O)O)cn4C3CC3)CC2)nc2ccccc21 | 4 (≈ 6.35 µM)
O=C(O)c1cn(C2CC2)c2cc(N3CCN(Cc4nc5ccccc5n4Cc4cccc(Cl)c4)CC3)c(F)cc2c1=O | 4 (≈ 6.83 µM)

Test system: Saccharomyces cerevisiae
Experiment: Antifungal activity against Saccharomyces cerevisiae ATCC 9763 after 24 hrs by micro broth dilution method
Format: functional
Conditions: ATCC 9763, 24 h

Compound | MIC80 [µg/mL]
O=C(O)c1cn(C2CC2)c2cc(N3CCN(Cc4nc5ccccc5n4Cc4ccccc4Cl)CC3)c(F)cc2c1=O | 16 (≈ 27.3 µM)
CCn1cc(C(=O)O)c(=O)c2cc(F)c(N3CCN(Cc4nc5ccccc5n4CC)CC3)cc21 | 64 (≈ 134 µM)
CCCCCCCCCCCCn1c(CN2CCN(c3cc4c(cc3F)c(=O)c(C(=O)O)cn4C3CC3)CC2)nc2ccccc21 | 8 (≈ 12.7 µM)
O=C(O)c1cn(C2CC2)c2cc(N3CCN(Cc4nc5ccccc5n4Cc4cccc(Cl)c4)CC3)c(F)cc2c1=O | 0.5 (≈ 0.853 µM)

Test system: not listed separately
Experiment: Antibacterial activity against Bacillus proteus ATCC 13315 by micro broth dilution method
Format: functional
Conditions: not given

Compound | MIC [µg/mL]
O=C(O)c1cn(C2CC2)c2cc(N3CCN(Cc4nc5ccccc5n4Cc4ccccc4Cl)CC3)c(F)cc2c1=O | 1 (≈ 1.71 µM)
CCn1cc(C(=O)O)c(=O)c2cc(F)c(N3CCN(Cc4nc5ccccc5n4CC)CC3)cc21 | 1 (≈ 2.09 µM)
CCCCCCCCCCCCn1c(CN2CCN(c3cc4c(cc3F)c(=O)c(C(=O)O)cn4C3CC3)CC2)nc2ccccc21 | 4 (≈ 6.35 µM)
O=C(O)c1cn(C2CC2)c2cc(N3CCN(Cc4nc5ccccc5n4Cc4cccc(Cl)c4)CC3)c(F)cc2c1=O | 0.5 (≈ 0.853 µM)

Test system: Salmonella enterica
Experiment: Antibacterial activity against Salmonella enterica ATCC 14028 by micro broth dilution method
Format: functional
Conditions: not given

Compound | MIC [µg/mL]
O=C(O)c1cn(C2CC2)c2cc(N3CCN(Cc4nc5ccccc5n4Cc4ccccc4Cl)CC3)c(F)cc2c1=O | 2 (≈ 3.41 µM)
CCn1cc(C(=O)O)c(=O)c2cc(F)c(N3CCN(Cc4nc5ccccc5n4CC)CC3)cc21 | 0.5 (≈ 1.05 µM)
CCCCCCCCCCCCn1c(CN2CCN(c3cc4c(cc3F)c(=O)c(C(=O)O)cn4C3CC3)CC2)nc2ccccc21 | 16 (≈ 25.4 µM)
O=C(O)c1cn(C2CC2)c2cc(N3CCN(Cc4nc5ccccc5n4Cc4cccc(Cl)c4)CC3)c(F)cc2c1=O | 0.25 (≈ 0.427 µM)

Test system: Staphylococcus aureus
Experiment: Antibacterial activity against Staphylococcus aureus ATCC 25923 by micro broth dilution method
Format: functional
Conditions: not given

Compound | MIC [µg/mL]
O=C(O)c1cn(C2CC2)c2cc(N3CCN(Cc4nc5ccccc5n4Cc4ccccc4Cl)CC3)c(F)cc2c1=O | 16 (≈ 27.3 µM)
CCn1cc(C(=O)O)c(=O)c2cc(F)c(N3CCN(Cc4nc5ccccc5n4CC)CC3)cc21 | 128 (≈ 268 µM)
CCCCCCCCCCCCn1c(CN2CCN(c3cc4c(cc3F)c(=O)c(C(=O)O)cn4C3CC3)CC2)nc2ccccc21 | 32 (≈ 50.8 µM)
O=C(O)c1cn(C2CC2)c2cc(N3CCN(Cc4nc5ccccc5n4Cc4cccc(Cl)c4)CC3)c(F)cc2c1=O | 8 (≈ 13.7 µM)

Test system: Aspergillus flavus
Experiment: Antifungal activity against Aspergillus flavus ATCC 204304 after 24 hrs by micro broth dilution method
Format: functional
Conditions: ATCC 204304, 24 h

Compound | MIC80 [µg/mL]
O=C(O)c1cn(C2CC2)c2cc(N3CCN(Cc4nc5ccccc5n4Cc4ccccc4Cl)CC3)c(F)cc2c1=O | 0.5 (≈ 0.853 µM)
CCn1cc(C(=O)O)c(=O)c2cc(F)c(N3CCN(Cc4nc5ccccc5n4CC)CC3)cc21 | 32 (≈ 67 µM)
CCCCCCCCCCCCn1c(CN2CCN(c3cc4c(cc3F)c(=O)c(C(=O)O)cn4C3CC3)CC2)nc2ccccc21 | 4 (≈ 6.35 µM)
O=C(O)c1cn(C2CC2)c2cc(N3CCN(Cc4nc5ccccc5n4Cc4cccc(Cl)c4)CC3)c(F)cc2c1=O | 0.5 (≈ 0.853 µM)

Test system: Escherichia coli
Experiment: Antibacterial activity against Escherichia coli DH52 by micro broth dilution method
Format: functional
Conditions: not given

Compound | MIC [µg/mL]
O=C(O)c1cn(C2CC2)c2cc(N3CCN(Cc4nc5ccccc5n4Cc4ccccc4Cl)CC3)c(F)cc2c1=O | 2 (≈ 3.41 µM)
CCn1cc(C(=O)O)c(=O)c2cc(F)c(N3CCN(Cc4nc5ccccc5n4CC)CC3)cc21 | 4 (≈ 8.38 µM)
CCCCCCCCCCCCn1c(CN2CCN(c3cc4c(cc3F)c(=O)c(C(=O)O)cn4C3CC3)CC2)nc2ccccc21 | 8 (≈ 12.7 µM)
O=C(O)c1cn(C2CC2)c2cc(N3CCN(Cc4nc5ccccc5n4Cc4cccc(Cl)c4)CC3)c(F)cc2c1=O | 0.5 (≈ 0.853 µM)

Test system: Pseudomonas aeruginosa
Experiment: Antibacterial activity against Pseudomonas aeruginosa ATCC 27853 by micro broth dilution method
Format: functional
Conditions: not given

Compound | MIC [µg/mL]
O=C(O)c1cn(C2CC2)c2cc(N3CCN(Cc4nc5ccccc5n4Cc4ccccc4Cl)CC3)c(F)cc2c1=O | 2 (≈ 3.41 µM)
CCn1cc(C(=O)O)c(=O)c2cc(F)c(N3CCN(Cc4nc5ccccc5n4CC)CC3)cc21 | 32 (≈ 67 µM)
CCCCCCCCCCCCn1c(CN2CCN(c3cc4c(cc3F)c(=O)c(C(=O)O)cn4C3CC3)CC2)nc2ccccc21 | 4 (≈ 6.35 µM)
O=C(O)c1cn(C2CC2)c2cc(N3CCN(Cc4nc5ccccc5n4Cc4cccc(Cl)c4)CC3)c(F)cc2c1=O | 0.125 (≈ 0.213 µM)

Test system: Escherichia coli
Experiment: Antibacterial activity against Escherichia coli JM109 by micro broth dilution method
Format: functional
Conditions: not given

Compound | MIC [µg/mL]
O=C(O)c1cn(C2CC2)c2cc(N3CCN(Cc4nc5ccccc5n4Cc4ccccc4Cl)CC3)c(F)cc2c1=O | 16 (≈ 27.3 µM)
CCn1cc(C(=O)O)c(=O)c2cc(F)c(N3CCN(Cc4nc5ccccc5n4CC)CC3)cc21 | 32 (≈ 67 µM)
CCCCCCCCCCCCn1c(CN2CCN(c3cc4c(cc3F)c(=O)c(C(=O)O)cn4C3CC3)CC2)nc2ccccc21 | 16 (≈ 25.4 µM)
O=C(O)c1cn(C2CC2)c2cc(N3CCN(Cc4nc5ccccc5n4Cc4cccc(Cl)c4)CC3)c(F)cc2c1=O | 4 (≈ 6.83 µM)

Test system: Staphylococcus aureus
Experiment: Antibacterial activity against methicillin-resistant Staphylococcus aureus N315 by micro broth dilution method
Format: functional
Conditions: not given

Compound | MIC [µg/mL]
O=C(O)c1cn(C2CC2)c2cc(N3CCN(Cc4nc5ccccc5n4Cc4ccccc4Cl)CC3)c(F)cc2c1=O | 4 (≈ 6.83 µM)
CCn1cc(C(=O)O)c(=O)c2cc(F)c(N3CCN(Cc4nc5ccccc5n4CC)CC3)cc21 | 8 (≈ 16.8 µM)
CCCCCCCCCCCCn1c(CN2CCN(c3cc4c(cc3F)c(=O)c(C(=O)O)cn4C3CC3)CC2)nc2ccccc21 | 64 (≈ 102 µM)
O=C(O)c1cn(C2CC2)c2cc(N3CCN(Cc4nc5ccccc5n4Cc4cccc(Cl)c4)CC3)c(F)cc2c1=O | 0.5 (≈ 0.853 µM)

Test system: not listed separately
Experiment: Antifungal activity against Candida mycoderma ATCC 9888 after 24 hrs by micro broth dilution method
Format: functional
Conditions: Candida vini

Compound | MIC80 [µg/mL]
O=C(O)c1cn(C2CC2)c2cc(N3CCN(Cc4nc5ccccc5n4Cc4ccccc4Cl)CC3)c(F)cc2c1=O | 4 (≈ 6.83 µM)
CCn1cc(C(=O)O)c(=O)c2cc(F)c(N3CCN(Cc4nc5ccccc5n4CC)CC3)cc21 | 0.25 (≈ 0.524 µM)
CCCCCCCCCCCCn1c(CN2CCN(c3cc4c(cc3F)c(=O)c(C(=O)O)cn4C3CC3)CC2)nc2ccccc21 | 4 (≈ 6.35 µM)
O=C(O)c1cn(C2CC2)c2cc(N3CCN(Cc4nc5ccccc5n4Cc4cccc(Cl)c4)CC3)c(F)cc2c1=O | 0.5 (≈ 0.853 µM)

Test system: Candida albicans
Experiment: Antifungal activity against Candida albicans ATCC 10231 after 24 hrs by micro broth dilution method
Format: functional
Conditions: ATCC 10231, 24 h

Compound | MIC80 [µg/mL]
O=C(O)c1cn(C2CC2)c2cc(N3CCN(Cc4nc5ccccc5n4Cc4ccccc4Cl)CC3)c(F)cc2c1=O | 8 (≈ 13.7 µM)
CCn1cc(C(=O)O)c(=O)c2cc(F)c(N3CCN(Cc4nc5ccccc5n4CC)CC3)cc21 | 4 (≈ 8.38 µM)
CCCCCCCCCCCCn1c(CN2CCN(c3cc4c(cc3F)c(=O)c(C(=O)O)cn4C3CC3)CC2)nc2ccccc21 | 64 (≈ 102 µM)
O=C(O)c1cn(C2CC2)c2cc(N3CCN(Cc4nc5ccccc5n4Cc4cccc(Cl)c4)CC3)c(F)cc2c1=O | 0.125 (≈ 0.213 µM)

Test system: Shigella dysenteriae
Experiment: Antibacterial activity against Shigella dysenteriae by micro broth dilution method
Format: functional
Conditions: not given

Compound | MIC [µg/mL]
O=C(O)c1cn(C2CC2)c2cc(N3CCN(Cc4nc5ccccc5n4Cc4ccccc4Cl)CC3)c(F)cc2c1=O | 16 (≈ 27.3 µM)
CCn1cc(C(=O)O)c(=O)c2cc(F)c(N3CCN(Cc4nc5ccccc5n4CC)CC3)cc21 | 128 (≈ 268 µM)
CCCCCCCCCCCCn1c(CN2CCN(c3cc4c(cc3F)c(=O)c(C(=O)O)cn4C3CC3)CC2)nc2ccccc21 | 2 (≈ 3.18 µM)
O=C(O)c1cn(C2CC2)c2cc(N3CCN(Cc4nc5ccccc5n4Cc4cccc(Cl)c4)CC3)c(F)cc2c1=O | 4 (≈ 6.83 µM)

Test system: Cyberlindnera jadinii
Experiment: Antifungal activity against Candida utilis ATCC 9950 after 24 hrs by micro broth dilution method
Format: functional
Conditions: Williopsis jadinii, ATCC 9950, 24 h

Compound | MIC80 [µg/mL]
O=C(O)c1cn(C2CC2)c2cc(N3CCN(Cc4nc5ccccc5n4Cc4ccccc4Cl)CC3)c(F)cc2c1=O | 1 (≈ 1.71 µM)
CCn1cc(C(=O)O)c(=O)c2cc(F)c(N3CCN(Cc4nc5ccccc5n4CC)CC3)cc21 | 8 (≈ 16.8 µM)
CCCCCCCCCCCCn1c(CN2CCN(c3cc4c(cc3F)c(=O)c(C(=O)O)cn4C3CC3)CC2)nc2ccccc21 | 32 (≈ 50.8 µM)
O=C(O)c1cn(C2CC2)c2cc(N3CCN(Cc4nc5ccccc5n4Cc4cccc(Cl)c4)CC3)c(F)cc2c1=O | 0.25 (≈ 0.427 µM)
